Assay results: ChEMBL document CHEMBL1201862, “PubChem BioAssay data set” (2004)
Active and inactive are the calls of the source.

Experiments:
Type in all cases: functional
[1] = biological target: cAMP-dependent protein kinase catalytic subunit alpha (Homo sapiens, UniProt P17612)
[2] = biological target: Mitogen-activated protein kinase 8 (Homo sapiens, UniProt P45983);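 further: value comes from one member of a kinome-wide kinase profiling panel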
[3] = biological target: Fibroblast growth factor receptor 1 (Homo sapiens, UniProt P11362)
[4] = biological target: Hepatocyte growth factor receptor (Homo sapiens, UniProt P08581);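 further: kinase panel profiling across the kinome, with MET as the panel member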
Chain of Hepatocyte growth factor receptor (P08581 whole entry): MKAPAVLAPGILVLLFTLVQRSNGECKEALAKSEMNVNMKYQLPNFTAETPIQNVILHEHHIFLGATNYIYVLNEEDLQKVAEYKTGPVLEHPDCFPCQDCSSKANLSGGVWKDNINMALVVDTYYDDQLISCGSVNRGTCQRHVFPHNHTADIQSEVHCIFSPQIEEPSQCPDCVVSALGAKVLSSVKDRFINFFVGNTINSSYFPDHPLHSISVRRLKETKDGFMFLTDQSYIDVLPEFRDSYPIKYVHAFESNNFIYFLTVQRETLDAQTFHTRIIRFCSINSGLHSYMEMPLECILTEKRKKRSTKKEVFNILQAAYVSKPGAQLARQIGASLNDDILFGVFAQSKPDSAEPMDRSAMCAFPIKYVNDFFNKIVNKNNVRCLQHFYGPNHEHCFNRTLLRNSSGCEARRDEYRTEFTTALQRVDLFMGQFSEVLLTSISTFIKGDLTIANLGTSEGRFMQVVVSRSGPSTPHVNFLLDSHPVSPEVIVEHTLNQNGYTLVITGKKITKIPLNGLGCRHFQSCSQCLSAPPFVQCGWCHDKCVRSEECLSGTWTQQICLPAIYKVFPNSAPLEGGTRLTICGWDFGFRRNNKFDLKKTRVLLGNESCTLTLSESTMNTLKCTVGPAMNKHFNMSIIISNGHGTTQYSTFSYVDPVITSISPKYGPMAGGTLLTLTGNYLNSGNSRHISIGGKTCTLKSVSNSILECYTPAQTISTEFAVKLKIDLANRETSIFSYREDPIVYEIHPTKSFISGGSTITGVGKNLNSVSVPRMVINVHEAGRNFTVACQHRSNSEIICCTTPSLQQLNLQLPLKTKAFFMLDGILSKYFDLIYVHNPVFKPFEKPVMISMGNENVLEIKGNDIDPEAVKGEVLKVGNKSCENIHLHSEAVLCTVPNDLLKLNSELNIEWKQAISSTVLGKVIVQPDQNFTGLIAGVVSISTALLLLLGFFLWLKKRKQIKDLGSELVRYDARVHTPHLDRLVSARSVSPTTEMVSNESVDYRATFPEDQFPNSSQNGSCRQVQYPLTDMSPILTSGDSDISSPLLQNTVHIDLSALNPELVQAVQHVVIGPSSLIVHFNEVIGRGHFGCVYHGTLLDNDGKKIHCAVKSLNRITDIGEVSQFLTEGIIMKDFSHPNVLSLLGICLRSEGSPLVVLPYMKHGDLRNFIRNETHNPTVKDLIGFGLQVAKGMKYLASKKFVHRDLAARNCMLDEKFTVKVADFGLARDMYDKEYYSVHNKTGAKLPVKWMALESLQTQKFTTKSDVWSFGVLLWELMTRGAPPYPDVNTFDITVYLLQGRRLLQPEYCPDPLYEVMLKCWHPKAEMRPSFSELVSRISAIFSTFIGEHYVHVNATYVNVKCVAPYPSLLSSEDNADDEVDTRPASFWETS

[5] = biological target: Platelet-derived growth factor receptor beta (Homo sapiens, UniProt P09619);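 further: value comes from a kinome panel, with PDGFRB tested as one panel member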
[6] = biological target: Proto-oncogene tyrosine-protein kinase receptor Ret (Homo sapiens, UniProt P07949);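 further: measured within a kinome-wide profiling panel, RET as the panel member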
[7] = biological target: Tyrosine-protein kinase JAK3 (Homo sapiens, UniProt P52333)
[8] = biological target: ALK tyrosine kinase receptor (Homo sapiens, UniProt Q9UM73);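 further: ALK tested as one member of a kinase panel screen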
[9] = biological target: 5'-AMP-activated protein kinase catalytic subunit alpha-1 (Homo sapiens, UniProt Q13131)
[10] = biological target: Macrophage-stimulating protein receptor (Homo sapiens, UniProt Q04912); assay: Navigating the Kinome. Panel member name: MST1R
[11] = biological target: Macrophage colony-stimulating factor 1 receptor (Homo sapiens, UniProt P07333);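 further: value comes from the Navigating the Kinome screening panel, CSF1R member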
Chain of Macrophage colony-stimulating factor 1 receptor (P07333 whole entry): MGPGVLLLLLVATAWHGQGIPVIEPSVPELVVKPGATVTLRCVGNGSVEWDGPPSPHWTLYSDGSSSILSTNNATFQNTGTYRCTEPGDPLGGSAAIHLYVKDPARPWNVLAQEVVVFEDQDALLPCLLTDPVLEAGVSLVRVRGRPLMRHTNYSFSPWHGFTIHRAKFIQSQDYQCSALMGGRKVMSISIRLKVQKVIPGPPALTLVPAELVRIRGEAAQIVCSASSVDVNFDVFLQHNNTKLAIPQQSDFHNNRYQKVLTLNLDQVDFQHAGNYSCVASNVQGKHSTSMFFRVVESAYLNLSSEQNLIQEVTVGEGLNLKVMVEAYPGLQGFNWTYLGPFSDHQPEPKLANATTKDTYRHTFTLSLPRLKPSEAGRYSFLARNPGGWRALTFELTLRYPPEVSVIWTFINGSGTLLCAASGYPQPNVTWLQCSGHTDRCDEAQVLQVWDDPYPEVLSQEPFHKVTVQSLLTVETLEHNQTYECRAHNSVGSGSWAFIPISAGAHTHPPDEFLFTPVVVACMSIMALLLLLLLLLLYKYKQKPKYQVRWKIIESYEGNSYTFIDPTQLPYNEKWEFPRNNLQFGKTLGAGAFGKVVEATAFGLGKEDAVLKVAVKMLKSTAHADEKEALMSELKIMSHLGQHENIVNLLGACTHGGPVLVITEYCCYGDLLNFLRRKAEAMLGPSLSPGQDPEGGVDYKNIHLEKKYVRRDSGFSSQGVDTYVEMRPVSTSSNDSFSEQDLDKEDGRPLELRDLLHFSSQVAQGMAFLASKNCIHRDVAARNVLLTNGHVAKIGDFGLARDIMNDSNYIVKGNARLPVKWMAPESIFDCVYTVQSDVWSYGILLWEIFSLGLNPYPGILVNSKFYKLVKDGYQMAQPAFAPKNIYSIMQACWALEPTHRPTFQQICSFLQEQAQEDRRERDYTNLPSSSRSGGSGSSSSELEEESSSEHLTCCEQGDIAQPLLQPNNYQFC

[12] = biological target: Dual specificity tyrosine-phosphorylation-regulated kinase 1B (Homo sapiens, UniProt Q9Y463); assay: Navigating the Kinome. Panel member name: DYRK1B
[13] = biological target: Calcium/calmodulin-dependent protein kinase type II subunit alpha (Homo sapiens, UniProt Q9UQM7); assay: Navigating the Kinome. Panel member name: CAMK2A
Chain of Calcium/calmodulin-dependent protein kinase type II subunit alpha (Q9UQM7 whole entry): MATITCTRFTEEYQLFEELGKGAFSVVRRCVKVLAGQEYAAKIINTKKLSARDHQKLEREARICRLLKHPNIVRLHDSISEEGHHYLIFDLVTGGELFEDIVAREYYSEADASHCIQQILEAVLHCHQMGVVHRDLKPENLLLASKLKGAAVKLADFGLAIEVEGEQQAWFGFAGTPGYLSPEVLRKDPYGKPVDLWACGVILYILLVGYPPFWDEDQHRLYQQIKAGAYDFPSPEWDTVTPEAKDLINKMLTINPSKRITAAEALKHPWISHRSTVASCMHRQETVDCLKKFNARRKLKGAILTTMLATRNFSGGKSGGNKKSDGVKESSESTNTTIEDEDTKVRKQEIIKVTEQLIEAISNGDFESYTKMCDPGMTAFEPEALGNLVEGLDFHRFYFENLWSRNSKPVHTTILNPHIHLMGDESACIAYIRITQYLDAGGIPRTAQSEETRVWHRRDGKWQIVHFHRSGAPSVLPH

[14] = biological target: Tyrosine-protein kinase JAK2 (Homo sapiens, UniProt O60674);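 further: JAK2 tested as one member of a kinase panel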
Focal adhesion kinase 1 = Focal adhesion kinase 1 (Homo sapiens, UniProt Q05397);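 further: measured as one member of a kinome panel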
[15] = biological target: Dual specificity mitogen-activated protein kinase kinase 2 (Homo sapiens, UniProt P36507); assay: Navigating the Kinome. Panel member name: MAP2K2
Chain of Dual specificity mitogen-activated protein kinase kinase 2 (P36507 whole entry): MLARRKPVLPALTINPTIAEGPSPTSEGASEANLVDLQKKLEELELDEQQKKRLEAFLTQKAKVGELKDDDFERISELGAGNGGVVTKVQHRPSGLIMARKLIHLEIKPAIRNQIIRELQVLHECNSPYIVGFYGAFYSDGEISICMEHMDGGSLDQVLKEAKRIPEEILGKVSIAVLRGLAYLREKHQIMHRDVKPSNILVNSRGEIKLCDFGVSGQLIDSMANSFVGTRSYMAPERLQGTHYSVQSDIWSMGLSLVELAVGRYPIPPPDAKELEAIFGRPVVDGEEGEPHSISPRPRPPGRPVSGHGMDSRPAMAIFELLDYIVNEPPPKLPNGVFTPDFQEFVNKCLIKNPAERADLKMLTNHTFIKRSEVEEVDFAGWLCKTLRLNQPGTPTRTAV

[16] = biological target: Cyclin-dependent kinase 7 (Homo sapiens, UniProt P50613);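 further: value comes from a kinome-wide kinase profiling panel in which CDK7 is one member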
Chain of Cyclin-dependent kinase 7 (P50613 whole entry): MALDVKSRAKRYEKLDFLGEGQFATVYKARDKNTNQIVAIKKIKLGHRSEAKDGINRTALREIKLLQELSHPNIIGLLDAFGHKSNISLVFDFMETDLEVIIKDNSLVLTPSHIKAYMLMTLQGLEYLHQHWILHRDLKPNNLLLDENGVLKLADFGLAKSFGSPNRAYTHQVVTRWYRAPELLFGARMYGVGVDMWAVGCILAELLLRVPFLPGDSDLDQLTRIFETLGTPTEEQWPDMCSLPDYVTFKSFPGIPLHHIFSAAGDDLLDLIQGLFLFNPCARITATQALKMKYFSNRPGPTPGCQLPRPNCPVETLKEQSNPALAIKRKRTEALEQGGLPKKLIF

[17] = biological target: Glycogen synthase kinase-3 beta (Homo sapiens, UniProt P49841);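 further: value comes from a broad kinome profiling panel, with GSK3B as the panel member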
[18] = biological target: Serine/threonine-protein kinase pim-1 (Homo sapiens, UniProt P11309)
Activated CDC42 kinase 1 = Activated CDC42 kinase 1 (Homo sapiens, UniProt Q07912); assay: Navigating the Kinome. Panel member name: ACK1
Chain of Activated CDC42 kinase 1 (Q07912 whole entry): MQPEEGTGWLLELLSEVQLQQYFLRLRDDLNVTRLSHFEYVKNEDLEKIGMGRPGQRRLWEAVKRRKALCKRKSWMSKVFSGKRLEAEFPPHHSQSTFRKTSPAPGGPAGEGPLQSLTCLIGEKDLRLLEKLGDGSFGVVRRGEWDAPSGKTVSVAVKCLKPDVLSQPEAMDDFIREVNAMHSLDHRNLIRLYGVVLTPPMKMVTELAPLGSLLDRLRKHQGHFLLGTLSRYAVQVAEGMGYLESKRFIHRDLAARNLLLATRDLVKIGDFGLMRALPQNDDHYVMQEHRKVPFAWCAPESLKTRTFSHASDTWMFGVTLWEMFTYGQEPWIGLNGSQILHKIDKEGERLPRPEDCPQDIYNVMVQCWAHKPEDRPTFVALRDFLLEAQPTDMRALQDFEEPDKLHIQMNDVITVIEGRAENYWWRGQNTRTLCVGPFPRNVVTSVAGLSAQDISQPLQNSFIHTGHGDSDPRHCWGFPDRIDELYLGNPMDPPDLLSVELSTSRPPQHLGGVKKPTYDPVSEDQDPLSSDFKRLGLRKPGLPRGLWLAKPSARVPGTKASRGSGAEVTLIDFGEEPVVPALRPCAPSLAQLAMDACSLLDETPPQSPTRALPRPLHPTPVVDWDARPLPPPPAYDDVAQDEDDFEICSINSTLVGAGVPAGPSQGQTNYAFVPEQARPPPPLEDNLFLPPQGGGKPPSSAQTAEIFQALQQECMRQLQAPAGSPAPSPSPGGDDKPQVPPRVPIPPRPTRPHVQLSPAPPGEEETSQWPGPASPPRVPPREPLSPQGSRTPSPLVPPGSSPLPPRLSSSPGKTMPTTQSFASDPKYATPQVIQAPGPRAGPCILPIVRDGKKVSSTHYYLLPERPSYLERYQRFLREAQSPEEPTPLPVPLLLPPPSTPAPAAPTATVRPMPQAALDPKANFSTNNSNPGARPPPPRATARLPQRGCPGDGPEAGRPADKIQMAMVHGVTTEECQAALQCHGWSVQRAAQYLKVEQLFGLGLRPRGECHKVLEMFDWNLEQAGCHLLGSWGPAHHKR

[19] = biological target: Cyclin-dependent kinase 8 (Homo sapiens, UniProt P49336); assay: Navigating the Kinome. Panel member name: CDK8
[20] = biological target: Dual specificity tyrosine-phosphorylation-regulated kinase 1A (Homo sapiens, UniProt Q13627);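 further: measured against DYRK1A as one member of a broad kinome profiling panel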
[21] = biological target: Vascular endothelial growth factor receptor 1 (Homo sapiens, UniProt P17948);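 further: measured within a kinome-wide profiling panel, FLT1 as the panel member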
[22] = biological target: Receptor-type tyrosine-protein kinase FLT3 (Homo sapiens, UniProt P36888);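 further: FLT3 was tested as one member of a kinome-wide kinase panel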
[23] = biological target: Tyrosine-protein kinase receptor TYRO3 (Homo sapiens, UniProt Q06418);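 further: TYRO3 value obtained as one member of a kinome-wide profiling panel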
[24] = biological target: Cyclin-dependent kinase 9 (Homo sapiens, UniProt P50750);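 further: value from the CDK9 entry of a kinome-spanning kinase panel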
[25] = biological target: Serine/threonine-protein kinase TAO1 (Homo sapiens, UniProt Q7L7X3)
[26] = biological target: Dual specificity protein kinase CLK4 (Homo sapiens, UniProt Q9HAZ1)
LIM domain kinase 1 = LIM domain kinase 1 (Homo sapiens, UniProt P53667); assay: Navigating the Kinome. Panel member name: LIMK1
[27] = biological target: Serine/threonine-protein kinase Chk1 (Homo sapiens, UniProt O14757);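 further: measured as one member of a kinome-wide kinase profiling panel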
[28] = biological target: Dual specificity mitogen-activated protein kinase kinase 1 (Homo sapiens, UniProt Q02750); assay: Navigating the Kinome. Panel member name: MAP2K1
Aurora kinase A = Aurora kinase A (Homo sapiens, UniProt O14965);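 further: value from the Navigating the Kinome kinase panel profiling, panel entry STK6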
[29] = biological target: Leukocyte tyrosine kinase receptor (Homo sapiens, UniProt P29376); assay: Navigating the Kinome. Panel member name: LTK

Measured: Ki

Chain of Mitogen-activated protein kinase 8 (P45983 whole entry): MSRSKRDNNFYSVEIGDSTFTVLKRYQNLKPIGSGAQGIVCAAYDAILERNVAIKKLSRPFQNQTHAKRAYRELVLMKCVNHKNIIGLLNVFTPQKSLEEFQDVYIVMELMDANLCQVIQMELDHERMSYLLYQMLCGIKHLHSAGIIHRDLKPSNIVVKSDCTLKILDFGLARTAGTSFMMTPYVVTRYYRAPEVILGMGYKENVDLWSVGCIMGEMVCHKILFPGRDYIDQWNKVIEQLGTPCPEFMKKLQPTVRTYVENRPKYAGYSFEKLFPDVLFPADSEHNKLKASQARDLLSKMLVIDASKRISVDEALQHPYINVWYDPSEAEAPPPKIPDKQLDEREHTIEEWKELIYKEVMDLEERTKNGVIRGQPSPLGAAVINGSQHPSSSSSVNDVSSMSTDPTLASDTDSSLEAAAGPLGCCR

CC(=O)Nc1ccc(-n2nc3ccc(N)nc3n2)cc1
active: [1] 1.26 µM | [2] 2.51 µM | [3] 1.26 µM | [4] 1 µM | [5] 2 µM | [6] 1.58 µM | [7] 2 µM | [8] 2 µM | [9] 1.26 µM | [10] 2.51 µM | [11] 2 µM | [12] 1.26 µM | [13] 1.26 µM | [14] 2 µM | Focal adhesion kinase 1 5.01 µM | [15] 1.58 µM | [16] 2.51 µM | [17] 1.26 µM | [18] 3.98 µM | Activated CDC42 kinase 1 1 µM | [19] 2.51 µM | [20] 1 µM | [21] 2.51 µM | [22] 2 µM | [23] 1.26 µM | [24] 1 µM | [25] 5.01 µM | [26] 794 nM | LIM domain kinase 1 1.26 µM | [27] 794 nM | [28] 2.51 µM | Aurora kinase A 1.58 µM | [29] 794 nM
